The term EC50 denotes the concentration giving half of the maximal effect. Higher therefore signals a need for much substance.

This note sets out measurements from patent US11207385B2, “Melanocortins and methods of use thereof” (Aequus Biopharma, Inc., priority 2015, dated 2021).

Square brackets hold non-standard residues; d marks the D form. Ends that are not written are not given here. Nle = CCCC[C@H](N)C(=O)O

One series has as its target T1, MCR2 (Homo sapiens, UniProt Q01718).
T1 construct: expressed in transfected cells; host or cells: CHO (CHO-MCR2)
Kind of series: cAMP production (LANCE cAMP assay) in CHO-MCR2 cells. In kind it is cell-based. From the text:
The manufacturer's recommended protocol was followed.
For orientation: Changes in cAMP serve as a functional read-out for many G protein-coupled receptors.

The target of the next series is T2, MCR4 (Homo sapiens, UniProt P32245).
T2 construct: expressed in transfected cells; host or cells: CHO (CHO-MCR4)
Kind of series: cAMP production (LANCE cAMP assay) in CHO-MCR4 cells. In kind it is cell-based. The following applies: Cell Pool B (partially enriched for MCR expression).

A further series has as its system plasma corticosterone. Kind of series: Steroidogenic effects: corticosterone response in healthy mice (ELISA). The format is in vivo, Balb/c mice. The following applies: for Mean corticosterone: plasma 1 h after dosing. As to the method:
Compositions described herein were administered to Balb/c mice to determine the half-maximal effective concentrations for induction of corticosteroids in healthy mice. Balb/c mice were divided into 13 groups of 4 animals each (Groups 1-13), and each animal was administered a composition at a dosage as indicated in Table 5.
Each animal was injected subcutaneously at 0.2 ml/mouse as in Table 5. One hour after vehicle or test compositions were administered, the mice were anesthetized and exsanguinated into pre-chilled EDTA-treated microtainer tubes (Becton-Dickinson). The whole blood was processed to plasma and assayed by ELISA for corticosterone (Enzo Life Sciences).
In general terms: In an ELISA, binding on a coated surface is turned into a signal by an enzyme label.

In series [1] the test system is murine models of gout (MSU-injected air pouch). Briefly: Murine air pouch model of gout, neutrophil counts and IL-1β in exudate (Example 6). The format is in vivo, Balb/c mice. As to conditions: 3 and 10 nmol/mouse sc 1 h before MSU. The protocol:
An air pouch was formed by injecting 6 mL of sterile air using a syringe filter with a 0.22 micron air filter and 23-gauge needle subcutaneously into a shaved skin site on the back of male Balb/c mice (age 6-8 weeks) on Day 0. The wound result from the pouch was allowed to heal for 3 days without any intervention. The pouch was then re-inflated with 3 mL of sterile air on Day 3. Three days after re-inflation on Day 6, compositions described herein were administered via subcutaneous injection 1 hour prior to the administration of 30 mg monosodium urate crystals (MSU) directly into the air pouch to induce an inflammatory response. Four hours after injection of MSU, mice were anesthetized and exsanguinated. Exudate from the air pouch was collected by lavaging the air pouch of each animal with 3 ml of sterile PBS containing 10 U/ml heparin. Analyses performed on exudates include determining neutrophil counts and IL-1β cytokine concentrations. […] 10 • 3) NDP-α-MSH-linker-linker-ACTH1-24, SEQ ID NO. 23 • 4) ACTH1-24-linker-linker-NDP-α-MSH, SEQ ID NO. 26
SEQ ID NOS. […] SEQ ID NO. 23 and SEQ ID NO. […] 10 in reducing neutrophil counts and IL-1β cytokine concentrations in collected exudate, and the arrangement of SEQ ID NO. […] 23.

Setting [2] is: Cell Pool A (partially enriched for MCR expression).
[3] abbreviates: Cell Pool B (partially enriched for MCR expression).

T2 sequence (P32245 whole entry): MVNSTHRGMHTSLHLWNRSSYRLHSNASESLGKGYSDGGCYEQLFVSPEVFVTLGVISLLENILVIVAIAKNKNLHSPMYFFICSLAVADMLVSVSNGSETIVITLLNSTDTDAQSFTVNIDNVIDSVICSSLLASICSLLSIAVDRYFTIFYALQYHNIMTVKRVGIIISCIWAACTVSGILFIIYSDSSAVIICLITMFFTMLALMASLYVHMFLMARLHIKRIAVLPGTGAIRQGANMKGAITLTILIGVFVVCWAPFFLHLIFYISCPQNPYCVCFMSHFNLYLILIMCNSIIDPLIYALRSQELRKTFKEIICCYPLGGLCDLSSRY
T1 sequence (Q01718 whole entry): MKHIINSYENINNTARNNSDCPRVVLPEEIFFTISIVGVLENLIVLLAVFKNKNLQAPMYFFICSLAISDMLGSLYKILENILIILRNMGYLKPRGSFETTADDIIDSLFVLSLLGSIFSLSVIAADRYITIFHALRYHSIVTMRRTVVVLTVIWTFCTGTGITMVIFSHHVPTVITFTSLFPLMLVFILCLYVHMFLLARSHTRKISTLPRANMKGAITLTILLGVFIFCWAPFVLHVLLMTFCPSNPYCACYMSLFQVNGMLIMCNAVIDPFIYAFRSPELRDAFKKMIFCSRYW
T1 sequence (Q8TCY5 whole entry partner): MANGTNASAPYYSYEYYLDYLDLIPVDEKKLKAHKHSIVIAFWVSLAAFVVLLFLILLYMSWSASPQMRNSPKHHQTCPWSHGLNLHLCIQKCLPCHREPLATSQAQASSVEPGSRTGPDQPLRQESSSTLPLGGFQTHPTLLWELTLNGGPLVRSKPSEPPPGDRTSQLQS
Description for MCR4: MCR stimulation in response to polypeptides added to cell culture media was measured by cAMP production via LANCE cAMP assay (Perkin Elmer cat #AD0263).
The manufacturer's recommended protocol was followed. […] To each well was added 5 uL of cell suspension (10,000 CHO-MCR cells per well, with Alexa-labeled antibodies). The mixtures were incubated for 30 minutes at room temperature. Then, to each well was added 10 uL of Detection Mix. The mixtures were incubated for 120 minutes at room temperature. […] This process was repeated for each of CHO-MCR1, CHO-MCR2, CHO-MCR3, CHO-MCR4 and CHO-MCR5 cells.

Compound “YVMGHFRWDRFGKRSYSMEHFRWGKPVGKKRRPVKVYP [compound 1]” displayed an EC50 on MCR2 (setting [2]) of 26 nM.

In the case of “SYSMEHFRWGKPVGKKRRPVKVYPPLPEGGPEPRSDGAKPGPREGKRSYS[Nle]EH[dF]RWGKPV [compound 39]”, the EC50 is 0.18 nM at MCR2 (setting [3]) and 1.6 nM on MCR4.

The compound “YVMGHFRWDRFGRRNSSSSGSSGAGQSYSMEHFRWGKPVGKKRRPVKVYP [compound 14]” registered an EC50 on MCR2 (setting [2]) greater than 100 nM.

On MCR2 (Cell Pool C (optimized cell bank)), `CSCC[C@H](NC(=O)[C@H](CO)NC(=O)[C@H](Cc1ccc(O)cc1)NC(=O)[C@@H](N)CO)C(=O)N[C@@H](CCC(=O)O)C(=O)N[C@@H](Cc1c[nH]cn1)C(=O)N[C@@H](Cc1ccccc1)C(=O)N[C@@H](CCCNC(=N)N)C(=O)N[C@@H](Cc1c[nH]c2ccccc12)C(=O)NCC(=O)N[C@@H](CCCCN)C(=O)N1CCC[C@H]1C(=O)N[C@H](C(N)=O)C(C)C` [compound 11] yielded an EC50 greater than 100 nM.

As to “SYSMEHFRWGKPVGKKRRPVKVYPELTGQRLREGDGPDGPADDGAGASYSMEHFRWGKPV [compound 43]”, the concentration giving a half-maximal response (EC50) at MCR2 (setting [3]) was 0.18 nM; at MCR4, greater than 20 nM.

Regarding `CCCC[C@H](NC(=O)[C@H](CO)NC(=O)[C@H](Cc1ccc(O)cc1)NC(=O)[C@H](CO)NC(=O)[C@H](CO)NC(=O)CNC(=O)CNC(=O)CNC(=O)CNC(=O)[C@H](CO)NC(=O)CNC(=O)CNC(=O)CNC(=O)CNC(=O)[C@@H]1CCCN1C(=O)[C@H](Cc1ccc(O)cc1)NC(=O)[C@@H](NC(=O)[C@H](CCCCN)NC(=O)[C@@H](NC(=O)[C@@H]1CCCN1C(=O)[C@H](CCCNC(=N)N)NC(=O)[C@H](CCCNC(=N)N)NC(=O)[C@H](CCCCN)NC(=O)[C@H](CCCCN)NC(=O)CNC(=O)[C@@H](NC(=O)[C@@H]1CCCN1C(=O)[C@H](CCCCN)NC(=O)CNC(=O)[C@H](Cc1c[nH]c2ccccc12)NC(=O)[C@H](CCCNC(=N)N)NC(=O)[C@H](Cc1ccccc1)NC(=O)[C@H](Cc1c[nH]cn1)NC(=O)[C@H](CCC(=O)O)NC(=O)[C@H](CCSC)NC(=O)[C@H](CO)NC(=O)[C@H](Cc1ccc(O)cc1)NC(=O)[C@@H](N)CO)C(C)C)C(C)C)C(C)C)C(=O)N[C@@H](CCC(=O)O)C(=O)N[C@@H](Cc1c[nH]cn1)C(=O)N[C@H](Cc1ccccc1)C(=O)N[C@@H](CCCNC(=N)N)C(=O)N[C@@H](Cc1c[nH]c2ccccc12)C(=O)NCC(=O)N[C@@H](CCCCN)C(=O)N1CCC[C@H]1C(=O)N[C@H](C(=O)O)C(C)C` [SEQ ID NO. 26, ACTH1-24-linker-linker-NDP-α-MSH], the “Fold change over baseline (corticosterone)” value in the series on plasma corticosterone (0.003 nmol/mouse sc) came to 0.8; in the series with plasma corticosterone (0.03 nmol/mouse sc), 1.0; in the series on plasma corticosterone (0.3 nmol/mouse sc) it was 1.8; in the series on plasma corticosterone (1.0 nmol/mouse sc), 3.3; in the series on plasma corticosterone (3.0 nmol/mouse sc), 3.4; with plasma corticosterone (10.0 nmol/mouse sc), 4.4. Also, the Mean corticosterone with plasma corticosterone (0.003 nmol/mouse sc) came to 863553 pg/mL; with plasma corticosterone (0.03 nmol/mouse sc) it was 116070 pg/mL; in the series with plasma corticosterone (0.3 nmol/mouse sc), 149581 pg/mL; in the series with plasma corticosterone (1.0 nmol/mouse sc), 264845 pg/mL; in the series on plasma corticosterone (3.0 nmol/mouse sc), 488734 pg/mL; in the series on plasma corticosterone (10.0 nmol/mouse sc) it was 514583 pg/mL. Moreover, the “effect on plasma corticosterone” value in the series on plasma corticosterone (0.015, 0.15, and 1.5 μg/mouse sc) is “no significant effect”. In addition, the “reduction in plasma corticosterone levels at equally active dose levels” value in the series with plasma corticosterone (3 nanomole SEQ ID NO. 26 versus 10 nanomole SEQ ID NO. 10, healthy mice) is 40%. Besides, the “plasma corticosterone levels (significantly increased, not different from each other)” value in the series with plasma corticosterone (5.2-51.5 μg/mouse sc) was roughly 500 ng/mL. Moreover, the “plasma corticosterone after a single subcutaneous injection (dose response, words)” value with plasma corticosterone (single sc injection 0.2 ml/mouse, FIG. 14) is given as “dose-dependent increase in plasma corticosterone”.

As to “SYSMEHFRWGKPVGKKRRPVKVYPPLPEGGPEPRSDGAKPGPREGKRSYSMEHFRWGKPV [compound 42]”, the values for the EC50 at MCR2 (setting [3]) and on MCR4 were 0.15 nM and greater than 20 nM, respectively.

As to “NDP-α-MSH-linker-linker-ACTH1-24 (Ac-SYS[Nle]EH[dF]RWGKPVGGGGSGGGGSSYSMEHFRWGKPVGKKRRPVKVYP) [SEQ ID NO. 23]”, in series [1] (FIG. 8), the “reducing neutrophil counts in collected exudate (comparison in words)” value is “more active than SEQ ID NO. 10”. For the same compound, in series [1] (FIG. 9), the “reducing IL-1β cytokine concentrations in collected exudate (comparison in words)” value is “more active than SEQ ID NO. 10”.

“SYSMEHFRWGKPVGKKRRPVKVYPELTGQRLREGDGPDGPADDGAGASYS[Nle]EH[dF]RWGKPV [compound 40]” gave an EC50 on MCR2 (setting [3]) of 0.15 nM.

Regarding “YVMGHFRWDRFGRRNSSSSGSSGAGQKR [compound 9]”, the half-maximal effective concentration (EC50) at MCR2 (setting [3]) and at MCR4 was greater than 100 nM throughout.

In the case of “YVMGHFRWDRFGSYSMEHFRWGKPVGKKRRPVKVYP [compound 15]”, it took 5 nM to reach a half-maximal effect at MCR2 (setting [2]) (EC50).
